Measurements: US6539252B1, “Method and apparatus for the treatment of blood borne pathogens such as immunodeficiency virus” (priority 1996, dated 2003)

Columns and labels:
[1] = system: eukaryotic microorganisms; conditions: levels as low as; cited from earlier work
mammalian cells = conditions: at less than twenty parts per billion in the blood stream; cited from earlier work
bacterial pathogens = conditions: silver ions generated in small quantities in the blood stream; cited from earlier work
[2] = human blood serum; cited from earlier work
HIV virus = assay: treatment of HIV infected human subjects with electrically generated silver ions; viral load by RNA PCR quantification, T4 cell count; assay type: in vivo
Excerpt: The present invention operates by providing a low intensity direct current to electrode 35. By placing the electrode pad 98 on the surface of the patient in the vicinity of electrode 35, the low intensity direct current will cause the electrode 35 to act as an anode, thereby releasing metal ions into the bloodstream of the patient. These positively charged metal ions are attracted to the negative polarity of the virus, thereby destabilizing it, as discussed above. […] The use of such a large blood vessel is preferred because metal ions such as the preferred silver ion have a half life of approximately seven seconds. The device as will be seen below, creates an average output of four-hundred billion silver cations per second. With an average blood volume of four liters passing by the electrode 35 approximately twice per minute, the probability of a virus passing by the electrode 35 and being bonded to a metal ion increases when the volume of blood available to carry the virus is higher.
(§1) To balance the need for large numbers of silver ions with the need to keep the amount of silver within safer ranges for humans, the power supply 110 supplies two and one-half microamps of current for twelve minutes at the beginning of treatment. This produces 1.56×10(13) ions of silver per second. During the twelve minutes (i.e., seven-hundred twenty seconds) that the power supply 110 supplies two and one-half microamps of current, 0.0018 Coulombs enters the bloodstream (i.e., seven-hundred and twenty seconds multiplied by two and one-half microamps). Under Faraday's law, one mole of silver ions equals 96485 Coulombs. Further, one mole of silver ions weighs 107.87 grams. Thus, in the initial twelve minute operating period, nearly two micrograms (1.94 micrograms) of silver ions are introduced into the bloodstream.
After the initial twelve minute operating period, the low intensity direct current provided by power supply 110 is reduced to one-hundred twenty five nanoamps. This causes the production of silver ions to be produced at a rate of seven-hundred seventy-four billion ions per second. Under a preferred embodiment of the present invention, this level of electric current is maintained for a period of seventy-one hours and forty-eight minutes. During this time (i.e., 258,480 seconds) that the power supply 110 supplies one-hundred twenty-five nanoamps of current, […] enters the bloodstream (i.e., 258,480 seconds multiplied by one-hundred twenty-five nanoamps). Under Faraday's law, one mole of silver ions equals 96485 Coulombs. Further, one mole of silver ions weighs 107.87 grams. Thus, during this entire period, only approximately 36.1 micrograms of silver ions are introduced into the bloodstream. Thus, in the entire seventy-two hour treatment, only 38.1 micrograms of silver have been introduced into the patient's bloodstream.
In a first example, the human patient had 2,165,823 copies of the HIV virus per milliliter of blood by the RNA PCR quantification test method. In addition, this patient's T4 cell (Helper) count was at 18. This particular subject was experiencing serious kidney malfunction prior to treatment. Twenty-four hours after treatment, this patient's viral load was reduced to 1,336,817 copies of the HIV virus per milliliter of blood while the T4 cell count was 11. Because of this patient's kidney malfunction, it was suspected that most of the viral copies detected during the RNA PCR quantization test had been denatured but had not yet been removed from the patient by the kidneys. Thus, one month after treatment, the viral load was measured again and found to be reduced to 621,215 copies of the HIV virus per milliliter of blood.
Thus, the electrode 35 was placed in the subclavian vein. This patient was subjected to twelve minutes of treatment at 2.5 microamps and then only forty-seven hours and forty-eight minutes of treatment at one-hundred twenty-five nanoamps. […]

[3] = calculated silver content in blood serum during treatment; assay type: in vivo, human; conditions: by Faraday's law
Excerpt: as §1
After the initial twelve minute operating period, the low intensity direct current provided by power supply 110 is reduced to one-hundred twenty five nanoamps. This causes the production of silver ions to be produced at a rate of seven-hundred seventy-four billion ions per second. Under a preferred embodiment of the present invention, this level of electric current is maintained for a period of seventy-one hours and forty-eight minutes. […]

[4] = system: feline immunodeficiency virus (FIV); assay: treatment of a cat infected with feline immunodeficiency virus; assay type: in vivo; conditions: seven year old male cat with FIV; about four micrograms silver in 24 min, then one-half microgram per hour for 90 min
Excerpt: The methods of this invention have also been successfully tested on a different virus and a different host: namely, a cat infected with feline immunodeficiency virus (“FIV”). A seven year old male house cat weighing ten pounds and ten and three-quarter ounces had “heavy third eyelid”, some hair loss, eleven bite marks along his back and rump, and a wound to the top of the ear, all indicative of acute disease. The cat was anesthetized with ketamine, a catheter was placed in the neck, and the negative electrode was placed on the underchest. Approximately four micrograms of silver was delivered in twenty-four minutes, followed by one-half a microgram of silver per hour for ninety minutes.

[Ag+] [silver ions]
level toxic to eukaryotic microorganisms [1]: one to five
toxicity to mammalian cells (mammalian cells): totally nontoxic
quantity in the blood stream effective in destroying bacterial pathogens (bacterial pathogens): less than twenty
silver in the blood serum humans can withstand without a toxic reaction [2]: thirty to eighty
clinical outcome after treatment (HIV virus; first human patient): immediately felt improved health, was able to eat solid food, and experienced a dramatic increase in quality of life
viral load (HIV virus; first human patient, kidney malfunction, baseline 2,165,823, twenty-four hours after treatment, RNA PCR): 1,336,817 copies of the HIV virus per milliliter of blood
T4 cell count (HIV virus; first human patient, baseline 18, twenty-four hours after treatment): 11
viral load (HIV virus; first human patient, baseline 2,165,823, one month after treatment): 621,215 copies of the HIV virus per milliliter of blood
clinical outcome after treatment (HIV virus; second human subject): immediately felt improved health and was able to eat solid food
viral load (HIV virus; second human subject, electrode in subclavian vein, 12 min at 2.5 microamps then 47 h 48 min at 125 nanoamps, baseline 1,814,466, forty-eight hours after treatment, RNA PCR): 394,972 copies of the HIV virus per milliliter of blood
T4 cell count (HIV virus; second human subject, baseline 17, forty-eight hours after treatment): 18
clinical outcome after treatment (HIV virus; third human subject, also on AZT): immediately felt improved health, was able to eat solid food, and experienced a dramatic increase in quality of life
T4 cell count (HIV virus; third human subject, also on AZT, baseline 5, twenty-four hours after treatment): 6
viral load (HIV virus; third human subject, also undergoing treatment with AZT, 12 min at 2.5 microamps then 70 h 18 min at 125 nanoamps, baseline 693,832, twenty-four hours after treatment, RNA PCR): 634 copies of the HIV virus per milliliter of blood
silver content in the blood serum ([3]; entire seventy-two hour treatment (38.1 micrograms silver)): less than nine
silver content in the blood serum ([3]; initial twelve minutes at two and one-half microamps (1.94 micrograms silver)): less than five
clinical outcome the next morning [4]: returned to normal activity and appetite
